# Source: patent publication US11944605B2, “Rapamycin analogs and uses thereof” (Janssen Pharmaceutica NV, priority 2018, dated 2024)
# pIC50: −log10 of the molar value.
# How the values were obtained:
# [1] = test system: pS6K1 (p-p70 S6 Kinase (Thr389)) in MCF-7 cells; assay: AlphaLISA Ultra pS6K1 Assay; format: cell-based; details: Homo sapiens, 1.5 h; MCF7 cells, 90 min
# Method: AlphaLISA Ultra pS6K1 Assay
# 1. Seed MCF-7 cells in Corning 3701 plate and incubate for 20˜24 hour. 12,000˜16,000 cells will be seeded in 36 μL medium per well.
# 2. Change the culture medium with fresh medium and incubate for another 2 hours.
# 3. Add 12 μL (4×) compounds into the cell plate by HAMILTON. Final DMSO concentration is 0.5%. Incubate for 90 minutes.
# 4. Aspirate […] by HAMILTON, 10 μL rest per well.
# 5. Add 10 μL 2× lysis buffer using HAMILTON; total volume in wells is 20 μL. Allow cells to shake for 30 min. Cover plate by plastic foil and store plate at −80° C. up to analysis.
# 6. Thaw cell lysate at RT and transfer 10 μL lysate to assay plate (Optiplate-384).
# 7. Add 5 μL acceptor beads into assay plate and incubation for 2 hours
# 8. Add 5 μL donor beads and incubation for 2 hours
# 9. Count the plate by EnSpire Multimode Plate Reader
# [2] = test system: mTORC1 over mTORC2; assay: mTORC1 selectivity over mTORC2 at 24 hrs (Western blot based pS6K1 and pAKT assay); format: cell-based; details: 24 hrs
# Method: Western Blot Based pS6K1 and pAKT Assay at 24 and 48 Hour Timepoints
# 1. Seed six well plate with 500,000 PC3 cells per well and incubate for 20˜24 hour.
# 2. Add compounds into the cell plate. Incubate for 24 to 48 hours.
# 4. Plate is placed on ice and the media is removed via aspiration. The wells are washed with 1 mL of 1× PBS and then fully aspirated.
# 5. 110 μL of 1% Triton Lysis Buffer is added and each well is scraped vigorously.
# 6. Cell homogenates are transferred to 1.5 mL eppendorf tubes on ice and spun down at 4° C. for 10 minutes at 10,000 rpm.
# 9. The membranes were washed 3× with TBS-T with a 5 minute incubation between each wash then incubated with secondary antibody (LiCor IRDye 800 Donkey Anti Rabbit) for at least 30 minutes.
# 10. The membranes were washed 3× with TBS-T with a 5 minute incubation between each wash.
# 11. The gels were then incubated for 5 minutes with PBS at room temperature then imaged using a Li-Cor.
# “N/A” stands for “not assayed.”
Compound,pIC50 [1],mTORC1 selective @ 24 hrs [2]
CCCCCCOC1C[C@@H]2CC[C@@H](C)[C@@](O)(O2)C(=O)C(=O)N2CCCC[C@H]2C(=O)O[C@H]([C@H](C)C[C@@H]2CC[C@@H](O)[C@H](OC)C2)CC(=O)[C@H](C)/C=C(\C)[C@@H](O)[C@@H](OC)C(=O)[C@H](C)C[C@H](C)/C=C/C=C/C=C/1C (stereo partly drawn) [Compound I-103],9.00 to 10.00,
CO[C@@H]1C[C@H](C[C@@H](C)[C@@H]2CC(=O)[C@H](C)/C=C(\C)[C@@H](O)[C@@H](OC)C(=O)[C@H](C)C[C@H](C)/C=C/C=C/C=C(\C)[C@H](OCC(CO)CO)C[C@@H]3CC[C@@H](C)[C@@](O)(O3)C(=O)C(=O)N3CCCC[C@H]3C(=O)O2)CC[C@H]1O [I-4],9.00 to 10.00,YES
"CNC(=O)CCCO[C@@H]1C[C@@H]2CC[C@@H](C)[C@@](O)(O2)C(=O)C(=O)N2CCCC[C@H]2C(=O)O[C@H]([C@H](C)C[C@@H]2CC[C@@H](OCCO)[C@H](OC)C2)CC(=O)[C@H](C)/C=C(\C)[C@@H](O)[C@@H](OC)C(=O)[C@H](C)C[C@H](C)/C=C/C=C/C=C/1C [I-59, 4-[[(22E,24E,26E,27E,34R,35S,36R,37R,39S,41S,43R,44S,45R,46R,56R)-45, 56-dihydroxy-44-[(1R)-2-[(1S,3R,4R)-4-(2-hydroxyethoxy)-3-methoxy-cyclohexyl]-1-methyl-ethyl]-46-methoxy-34, 35,36,37,47,48-hexamethyl-49,50,51,52,53-pentaoxo-68,69-dioxa-58-azatricyclohexatriaconta-22, 24,26(47),27(48)-tetraen-43-yl]oxy]-N-methyl-butanamide]",≤ 7.00,YES
"CNC(=O)CCCO[C@H]1C[C@@H]2CC[C@@H](C)[C@@](O)(O2)C(=O)C(=O)N2CCCC[C@H]2C(=O)O[C@H]([C@H](C)C[C@@H]2CC[C@@H](OCCO)[C@H](OC)C2)CC(=O)[C@H](C)/C=C(\C)[C@@H](O)[C@@H](OC)C(=O)[C@H](C)C[C@H](C)/C=C/C=C/C=C/1C [I-60, 4-[[(22E, 24E,26E,27E,34R,35S,36R,37R,39S,41S,43S,44S,45R,46R,56R)-45, 56-dihydroxy-44-[(1R)-2-[(1S,3R,4R)-4-(2-hydroxyethoxy)-3-methoxy-cyclohexyl]-1-methyl-ethyl]-46-methoxy-34, 35,36,37,47,48-hexamethyl-49,50,51,52,53-pentaoxo-68,69-dioxa-58-azatricyclohexatriaconta-22, 24,26(47),27(48)-tetraen-43-yl]oxy]-N-methyl-butanamide]",8.00 to 9.00,YES
"CNC(=O)CCCOC1C[C@@H]2CC[C@@H](C)[C@@](O)(O2)C(=O)C(=O)N2CCCC[C@H]2C(=O)OC([C@H](C)CC2CC[C@@H](OCCO)[C@H](OC)C2)CC(=O)[C@H](C)/C=C(\C)[C@@H](O)[C@@H](OC)C(=O)[C@H](C)C[C@H](C)/C=C/C=C/C=C/1C (stereo partly drawn) [I-68, 4-[[(22E,24E,26E,27E,34R,35S,36R,37R,39S,41S,44S,45R,46R, 56R)-45,56-dihydroxy-44-[(1R)-2-[(1S,3R,4R)-4-(2-hydroxyethoxy)-3-methoxy-cyclohexyl]-1-methyl-ethyl]-46-methoxy-34, 35,36,37,47,48-hexamethyl-49,50,51,52,53-pentaoxo-68,69-dioxa-58-azatricyclohexatriaconta-22, 24,26(47),27(48)-tetraen-43-yl]oxy]-N-methyl-butanamide]",8.00 to 9.00,YES
"CO[C@@H]1C[C@H](C[C@@H](C)[C@@H]2CC(=O)[C@H](C)/C=C(\C)[C@@H](O)[C@@H](OC)C(=O)[C@H](C)C[C@H](C)/C=C/C=C/C=C(\C)[C@@H](OCCS(=O)(=O)CCS(=O)(=O)CCO)C[C@@H]3CC[C@@H](C)[C@@](O)(O3)C(=O)C(=O)N3CCCC[C@H]3C(=O)O2)CC[C@H]1O [I-95, (21E,23E,25E,26E,34R,35S,36R,37R,39S,41S,43S,44S,45R,46R,55R)-45, 55-dihydroxy-43-[2-[2-(2-hydroxyethylsulfonyl)ethylsulfonyl]ethoxy]-44-[(1R)-2-[(1S,3R, 4R)-4-hydroxy-3-methoxy-cyclohexyl]-1-methyl-ethyl]-46-methoxy-34,35,36,37,47,48-hexamethyl-70, 71-dioxa-56-azatricyclohexatriaconta-21,23,25(47),26(48)-tetraene-49, 50,51,52,53-pentone]",,YES

# More lines, main results first:
pIC50 [1],Compound,mTORC1 selective @ 24 hrs [2]
8.00 to 9.00,COCCOCCO[C@@H]1C[C@@H]2CC[C@@H](C)[C@@](O)(O2)C(=O)C(=O)N2CCCC[C@H]2C(=O)O[C@H]([C@H](C)C[C@@H]2CC[C@@H](OCCOC)[C@H](OC)C2)CC(=O)[C@H](C)/C=C(\C)[C@@H](O)[C@@H](OC)C(=O)[C@H](C)C[C@H](C)/C=C/C=C/C=C/1C [Compound I-89],
> 10.00,CO[C@@H]1C[C@H](C[C@@H](C)[C@@H]2CC(=O)[C@H](C)/C=C(\C)[C@@H](O)[C@@H](OC)C(=O)[C@H](C)C[C@H](C)/C=C/C=C/C=C(\C)C(OCCOCCOCC(F)(F)F)C[C@@H]3CC[C@@H](C)[C@@](O)(O3)C(=O)C(=O)N3CCCC[C@H]3C(=O)O2)CC[C@H]1O (stereo partly drawn) [Compound I-91],
9.00 to 10.00,COCCOCCOC1C[C@@H]2CC[C@@H](C)[C@@](O)(O2)C(=O)C(=O)N2CCCC[C@H]2C(=O)OC([C@H](C)CC2CC[C@@H](OCCOC)[C@H](OC)C2)CC(=O)[C@H](C)/C=C(\C)[C@@H](O)[C@@H](OC)C(=O)[C@H](C)C[C@H](C)/C=C/C=C/C=C/1C (stereo partly drawn) [Compound I-92],
8.00 to 9.00,CO[C@@H]1C[C@H](C[C@@H](C)[C@@H]2CC(=O)[C@H](C)/C=C(\C)[C@@H](O)[C@@H](OC)C(=O)[C@H](C)C[C@H](C)/C=C/C=C/C=C(\C)C(OCCOCCOCCOCCOCCOCCOCCOCCOCCOCCO)C[C@@H]3CC[C@@H](C)[C@@](O)(O3)C(=O)C(=O)N3CCCC[C@H]3C(=O)O2)CC[C@H]1O (stereo partly drawn) [Compound I-98],
8.00 to 9.00,CO[C@@H]1C[C@H](C[C@@H](C)[C@@H]2CC(=O)[C@H](C)/C=C(\C)[C@@H](O)[C@@H](OC)C(=O)[C@H](C)C[C@H](C)/C=C/C=C/C=C(\C)C(OCCOCC(COCCO)COCCO)C[C@@H]3CC[C@@H](C)[C@@](O)(O3)C(=O)C(=O)N3CCCC[C@H]3C(=O)O2)CC[C@H]1O (stereo partly drawn) [Compound I-100],
8.00 to 9.00,"CO[C@@H]1C[C@H](C[C@@H](C)[C@@H]2CC(=O)[C@H](C)/C=C(\C)[C@@H](O)[C@@H](OC)C(=O)[C@H](C)C[C@H](C)/C=C/C=C/C=C(\C)[C@H](OCCCC(=O)N(C)C)C[C@@H]3CC[C@@H](C)[C@@](O)(O3)C(=O)C(=O)N3CCCC[C@H]3C(=O)O2)CC[C@H]1OCCO [I-61, 4-[[(23E,25E,27E,28E,35R,36S,37R,38R,40S,42S,44R,45S,46R,47R,57R)-46, 57-dihydroxy-45-[(1R)-2-[(1S,3R,4R)-4-(2-hydroxyethoxy)-3-methoxy-cyclohexyl]-1-methyl-ethyl]-47-methoxy-35, 36,37,38,48,49-hexamethyl-50,51,52,53,54-pentaoxo-69,70-dioxa-58-azatricyclohexatriaconta-23, 25,27(48),28(49)-tetraen-44-yl]oxy]-N,N-dimethyl-butanamide]",YES
9.00 to 10.00,"CO[C@@H]1CC(C[C@@H](C)C2CC(=O)[C@H](C)/C=C(\C)[C@@H](O)[C@@H](OC)C(=O)[C@H](C)C[C@H](C)/C=C/C=C/C=C(\C)C(OCCCC(=O)N(C)C)C[C@@H]3CC[C@@H](C)[C@@](O)(O3)C(=O)C(=O)N3CCCC[C@H]3C(=O)O2)CC[C@H]1OCCO (stereo partly drawn) [I-69, 4-[[(23E, 25E,27E,28E,35R,36S,37R,38R,40S,42S,45S,46R,47R,57R)-46,57-dihydroxy-45-[(1R)-2-[(1S, 3R,4R)-4-(2-hydroxyethoxy)-3-methoxy-cyclohexyl]-1-methyl-ethyl]-47-methoxy-35, 36,37,38,48,49-hexamethyl-50,51,52,53,54-pentaoxo-69,70-dioxa-58-azatricyclohexatriaconta-23, 25,27(48),28(49)-tetraen-44-yl]oxy]-N,N-dimethyl-butanamide]",YES
8.00 to 9.00,"CO[C@@H]1CC(C[C@@H](C)C2CC(=O)[C@H](C)/C=C(\C)[C@@H](O)[C@@H](OC)C(=O)[C@H](C)C[C@H](C)/C=C/C=C/C=C(\C)[C@H](OCCOCC(F)(F)F)C[C@@H]3CC[C@@H](C)[C@@](O)(O3)C(=O)C(=O)N3CCCC[C@H]3C(=O)O2)CC[C@H]1OCCO (stereo partly drawn) [I-70, (21E,23E,25E,26E,33R,34S,35R,36R,38S,40S,42S,43R,44R,45R,54R)-44, 54-dihydroxy-43-[(1R)-2-[(1S,3R,4R)-4-(2-hydroxyethoxy)-3-methoxy-cyclohexyl]-1-methyl-ethyl]-45-methoxy-33, 34,35,36,46,47-hexamethyl-42-[2-(2,2,2-trifluoroethoxy)ethoxy]-65, 66-dioxa-56-azatricyclohexatriaconta-21,23,25(46),26(47)-tetraene-48,49,50,51,52-pentone]",YES
